This note sets out measurements from patent US12102705B2, “Peptides having inhibitory activity on muscarinic receptor M3” (AZIENDE CHIMICHE RIUNITE ANGELINI FRANCESCO—A.C.R.A.F. …, priority 2018, dated 2024).

Counter-ions that a name gives are not always drawn. Peptide text beside a SMILES is read from it. * marks the point of attachment. Palmitoyl = CCCCCCCCCCCCCCCC(=O)*

The subject of data set [1] is human epidermal keratinocytes (HEKa). Briefly: MTT cell viability assay in keratinocytes. The class given is cell-based. The following applies: as TFA-salt, any concentration assessed; keratinocytes and fibroblasts. As to the method:
This example evaluated the effects of the tested peptides on human epidermal keratinocytes and dermal fibroblasts cell viability. The 3-(4,5-dimethyl-2-thiazolyl)-2,5-diphenyl-2H-tetrazolium bromide (MTT) assay was used to that monitor cell proliferation and viability based on the capacity of the mitochondrial dehydrogenase enzyme to break and transform the tetrazolium rings of MTT.
Epidermal keratinocytes were seeded in a previously coated 96 well-plate at 50-60% confluence in 100 μL of supplemented medium. Dermal fibroblasts were seeded in a 96 well-plate at 70% confluence in 100 μL supplemented medium. 24 hours after seeding, medium was replaced by fresh supplemented medium containing peptides dissolved at concentration range between 0.1 and 100 μM or SDS as reference of 100% toxicity or DMSO as vehicle for peptides. All test substances were incubated for 24 hours at 37° C. and 5% CO2. Afterwards, medium was replaced by 0.5 mg/mL of MTT solution for 4 h in complete medium. Then, medium was carefully removed and 150 μL/well of DMSO were added to solubilize formazan crystals. Plate was protected from light, shaken for 60 seconds and optical density was measured at 570 nm with a reference filter of 620 nm. Toxicity values were calculated as percentages by considering maximum cytotoxic effect to SDS-treated cells and minimum as non-treated cells. Table G details effects of Seq. ID No 1, 5, 6 and 7 peptides on keratinocytes and fibroblasts as percentage of cell viability inhibition.

Data set [2] has as its target T1, human muscarinic receptor M3 (Homo sapiens, UniProt P20309).
T1 construct: expressed in transfected cells; cultured in Ham's F-12 medium
Briefly: Inhibition of M3-acetylcholine activation, Fluo-4 NW calcium fluorescence. Type of data set: cell-based. The following applies: 50 min, 50 min incubation, 10 nM acetylcholine. As to the method: (§1) Epithelial stable cell line constitutively expressing human muscarinic receptor M3 was used to assess peptides activity. Cells were seeded in 96-well plates at 50% cell confluence in 100 μL of complete Ham's F-12 medium. After 24 hours, medium was removed and cells were incubated with 90 μL/well of a solution of the peptides of the invention at 100, 50 or 10 μM or DMSO as vehicle. Peptides were dissolved in Fluo-4 NW (Invitrogen) fluorescent calcium probe assay buffer containing Probenecid, following manufacturer's instructions for 50 min at 37° C. in a CO2 incubator. Afterwards, M3 activity was determined by reading the fluorescence in a FLUOstar Galaxy reader (BMG LabTechnologies) using 485 nm filter for excitation and 520 nm for emission, recording signal before and after M3 activation with 10 nM acetylcholine. Fluorescence measurements were normalized to acetylcholine maximum fluorescence signal in vehicle treated cells. Atropine (100 nM) was used as positive control for inhibition. Inhibition values of M3 activity were calculated as percentages by considering maximum fluorescence corresponding to acetylcholine-M3 activation and minimum as non-stimulated cells. Table D details inhibition values of M3 activity inhibition obtained for the peptides of invention.

The target in data set [3] is T1, human muscarinic receptor M3. Kind of data set: Time-dependent inhibition of M3 activity, Fluo-4 NW calcium fluorescence. Type of data set: cell-based. Conditions: peptide 50 μM, read-out: % Inhibition hM3 receptor activity. As to the method:
Peptides of invention were designed to target the intracellular region of M3. Therefore, minimum time required to detect inhibitory effect on M3 activity was evaluated. For this purpose, inhibitory effect of peptides Seq. […] Epithelial stable cell line constitutively expressing human muscarinic receptor M3 was used to assess peptides activity. Cells were seeded in 96-well plates at 50% cell confluence in 100 μL of complete Ham's F-12 medium. After 24 hours, medium was removed and cells were incubated with 90 μL/well of Fluo-4 NW (Invitrogen) fluorescent calcium probe assay buffer containing probenecid, following manufacturer's instructions at 37° C. in a CO2 incubator. Peptides (50 μM), vehicle and atropine were incubated either with the probe (1 hour pre-incubation) or during fluorescence reading (direct effect). Afterwards, M3 activity was recorded for 20 cycles and direct effect peptides were added on cycle 3 after baseline assessment. Acetylcholine was added on cycle 13. Therefore, direct effect of peptides was monitored for 25 minutes. Inhibition values of M3 activity were calculated as percentages by considering maximum fluorescence corresponding to vehicle or non-treated cells acetylcholine-M3 activation and minimum as non-stimulated cells. Table E details inhibition values of M3 activity inhibition obtained for the peptides of invention.

Data set [4] has the same target. Briefly: Dose-response inhibitory effect on M3 activity (IC50). The class given is cell-based. As to the method: as §1
Characterization of Seq. ID No. 1, 3-8 peptides efficiency was obtained by calculating half maximal inhibitory concentration (IC50). For this purpose, experimental procedure regarding cell culture and fluorescent calcium probe assay was followed as described on Example 2. Peptides were assessed at concentrations between 0.1 and 100 μM and incubated for 1 hour together with Fluo-4 NW probe. Afterwards, M3 activity was determined by reading the fluorescence in a FLUOstar Galaxy reader (BMG LabTechnologies) using 485 nm filter for excitation and 520 nm for emission, recording signal before and after M3 activation with acetylcholine. Fluorescence measurements were standardized with regard to the maximum fluorescence signal detected with acetylcholine stimulation in vehicle treated cells. Inhibition values of M3 activity were calculated as percentages by considering maximum fluorescence corresponding to acetylcholine-M3 activation and minimum as non-stimulated cells. Percentage inhibition data was fitted to a sigmoidal curve to obtain IC50. Table F details inhibition values for IC50

In data set [5] the test system is sweating induced by pilocarpine. Kind of data set: Antiperspirant effect on acute administration, pilocarpine-induced mouse model of sweat secretion. The class given is in vivo, C57BL6/Rcc male mice. Conditions: at 10, 30 and 100 μg. As to the method: This example evaluated acute effects of the peptide of invention Seq. ID No 2, pamitoylated form, in an in vivo sweating model induced by pilocarpine. This model was established using pilocarpine, a non-selective agonist of muscarinic receptors, in 11-weeks old C57BL6/Rcc male mice.
Test compound is the peptide of the invention having the following sequence (Sequence ID No. 2): • Palm-WMMRLK-NH2
Test compound was injected i.pl. on the right hind paw (10, 30 and 100 μg) 30 min before sweating stimulation. Vehicle was saline solution.
(§2) Sweating was monitored through amylase activity detection on skin surface using iodine/starch reaction. Dark sweating drops were quantified after 5 minutes induction counting number of drops per paw in each condition. Data are expressed as mean±standard error of the mean (SEM). Raw data was normalized as percentage respect to non-injected stimulated individuals (Control, 100%) and saline-injected non-stimulated individuals (Vehicle, 0%). Statistical analysis was one-way ANOVA followed by Dunnett's post-hoc multiple comparison test comparing each condition with the corresponding control group, ****p<0.0001 ***p<0.001 **p<0.01, *p<0.05

Data set [6] shares this test system. Kind of data set: Antiperspirant effect on chronic administration, pilocarpine-induced mouse model of sweat secretion. Type of data set: in vivo, C57BL6/Rcc male mice. Conditions: during 4 weeks treatment, 10 and 100 μg/paw. As to the method:
This example evaluated chronic effects of peptide of invention Seq. ID No. 2, palmitoylated form, in an in vivo sweating model. This model was established using pilocarpine, a non-selective agonist of muscarinic receptors, in 11-weeks old C57BL6/Rcc male mice. Test compound was locally administered three times per week for 4 weeks (Treatment). Sweat was induced by intraplantar (i.pl) injection of pilocarpine (3 μg/paw) in the right hind paw (Sweating) on weeks 1, 2 and 4 according to the table H.
Test compound is the peptide of the invention having the following sequence (Sequence ID No. 2): • Palm-WMRLK-NH2
Test compound was injected i.pl. on the right hind paw (1, 10 and 100 μg in). Vehicle injected was saline solution.
as §2, with “condition. Sample n=5-6 individuals per group.” for “condition.”, “100%).” for “100%) and saline-injected non-stimulated individuals (Vehicle, 0%).”

T1 sequence (P20309 whole entry): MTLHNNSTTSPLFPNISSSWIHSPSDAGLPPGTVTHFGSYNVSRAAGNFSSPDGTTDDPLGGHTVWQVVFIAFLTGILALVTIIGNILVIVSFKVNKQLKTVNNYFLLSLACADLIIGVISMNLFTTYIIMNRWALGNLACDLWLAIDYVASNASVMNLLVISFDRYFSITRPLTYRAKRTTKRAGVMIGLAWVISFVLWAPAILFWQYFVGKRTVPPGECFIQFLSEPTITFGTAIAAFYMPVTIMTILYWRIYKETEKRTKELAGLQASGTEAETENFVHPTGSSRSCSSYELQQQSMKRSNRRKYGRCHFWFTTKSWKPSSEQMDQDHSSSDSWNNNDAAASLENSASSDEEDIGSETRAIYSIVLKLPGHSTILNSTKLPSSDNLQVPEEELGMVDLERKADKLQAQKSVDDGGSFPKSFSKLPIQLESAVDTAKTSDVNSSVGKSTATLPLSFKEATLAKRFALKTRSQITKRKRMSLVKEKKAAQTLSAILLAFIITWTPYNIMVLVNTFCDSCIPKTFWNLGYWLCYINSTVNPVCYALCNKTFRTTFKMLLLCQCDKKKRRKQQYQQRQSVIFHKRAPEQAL

With `CCCCCCCCCCCCCCCC(=O)N[C@@H](Cc1c[nH]c2ccccc12)C(=O)N[C@@H](CCSC)C(=O)N[C@@H](CCCNC(=N)N)C(=O)N[C@@H](CC(C)C)C(N)=O` [Seq. ID No. 1 Palmitoyl (TFA salt)] (Palmitoyl-WMRL-NH2), the “effect on cell proliferation” value in data set [1] is recorded as “did not affect cell proliferation”.
As to `CCCCCCCCCCCCCCCC(=O)N[C@@H](Cc1c[nH]c2ccccc12)C(=O)N[C@@H](CCSC)C(=O)N[C@@H](CCCNC(=N)N)C(=O)N[C@@H](CC(C)C)C(=O)N[C@@H](CCCCN)C(N)=O` [Seq. ID No. 2 Palmitoyl, Palm-WMRLK-NH2] (Palmitoyl-WMRLK-NH2), in data set [2] (peptide 10 μM), the inhibition at 10 µM came to 62.5%. The inhibition at 50 µM in data set [2] (peptide 50 μM) was found to be 85.4%; in data set [3] (25 min, 25 minutes (direct effect)) it was 25.5%; in data set [3] (60 minutes (1 hour pre-incubation)), 81%. Besides, the inhibition at 100 µM in data set [2] (peptide 100 μM) amounted to 88.6%. The compound also yielded an IC50 in data set [4] of 7.2 µM. Moreover, the reduction of sweating result in data set [5] is recorded as “significantly reduced sweating”. Further, in data set [6], the sweating inhibition entry was “significant sweating inhibition”.
Consider `CCCCCCCCCCCCCCCC(=O)N[C@@H](Cc1c[nH]c2ccccc12)C(=O)N[C@@H](CCSC)C(=O)N[C@@H](Cc1ccccc1)C(=O)N[C@@H](CC(C)C)C(=O)N[C@@H](CCCCN)C(N)=O` [Seq. ID No. 5 Palmitoyl (TFA salt)] (Palmitoyl-WMFLK-NH2), for which, in data set [1], the “effect on cell proliferation” value was “did not affect cell proliferation”.
For “Ac-RMYKMMAGMYLR-NH2 [Seq. ID No. 6 Acetyl (TFA salt)]”, in data set [1], the “effect on cell proliferation” value is “did not affect cell proliferation”.
For “Ac-RVMYKMNKRDY-NH2 [Seq. ID No. 7 Acetyl (TFA salt)]”, in data set [1], the “effect on cell proliferation” value is “did not affect cell proliferation”.
